# Results reported in US20100056516A1 (priority 2006, published 2010).
# Columns and labels:
# HXB2 virus = experiment: microbe, parasite or virus in culture; format: cell-based, HIV; details: Human immunodeficiency virus 1, HXB2, HeLaP4-2, read-out: antiviral IC50 (SCIA-B)
# Method: An assay for measuring the inhibition of acute HIV infection with HeLa P4-2 cells in a single cycle infectivity assay (SCIA-A) was conducted in accordance with Joyce, J. G., et al., J. Biol. Chem., 2002, 277, 45811, Hazuda, D. J. et al., Science, 2000, 287, 646, and Kimpton, J. et al, J. Virol. 1992, 66, 2232. Infectious virus was produced by transfecting 293T cells with HIV proviral DNA in which the integrase gene was derived from a IIIB isolate and the remainder of the HIV genome was derived from the NL4-3 isolate.
# This assay B for measuring the inhibition of acute HIV infection with HeLa P4-2 cells in a single cycle infectivity assay (SCIA-B) is essentially the same as Assay A described above, except that HXB2 virus is employed instead of the IIIb isolate.
# HIV integrase = HIV integrase (Human immunodeficiency virus type 1 group M subtype B, UniProt P04585); experiment: integrase strand transfer assay (STA); format: biochemical; details: integrase strand transfer; read-out: IC50 in the STA assay
Compound,IC50 (HXB2 virus) [µM],IC50 (HIV integrase) [µM]
"CCOC(=O)c1c(O)c2cc(-c3cccc(OC)c3)cnc2n(O)c1=O [Example 62, Ethyl 1,4-dihydroxy-6-(3-methoxyphenyl)-2-oxo-1,2-dihydro-1,8-naphthyridine-3-carboxylate]",< 100,< 50
"CCOC(=O)c1c(O)c2cc(Cc3ccccc3)cnc2n(O)c1=O [Example 63, Ethyl 6-benzyl-1,4-dihydroxy-2-oxo-1,2-dihydro-1,8-naphthyridine-3-carboxylate]",< 100,< 50
"CCOC(=O)c1c(O)c2cc(-c3cccc(-c4ccccc4)c3)cnc2n(O)c1=O [Example 64, Ethyl 6-biphenyl-3-yl-1,4-dihydroxy-2-oxo-1,2-dihydro-1,8-naphthyridine-3-carboxylate]",< 100,< 50
"CCOC(=O)c1c(O)c2cc(-c3cc(C)cc(C)c3)cnc2n(O)c1=O [Example 65, Ethyl 6-(3,5-dimethylphenyl)-1,4-dihydroxy-2-oxo-1,2-dihydro-1,8-napthyridine-3-carboxylate]",< 100,< 50
"O=c1c(Cc2ccccc2)c(O)c2cc(-c3ccccc3)cnc2n1O [Example 67, 3-Benzyl-1,4-dihydroxy-6-phenyl-1,8-naphthyridin-2(1H)-one]",< 100,< 50
"Nc1cccc(-c2cnc3c(c2)c(O)cc(=O)n3O)c1 [Example 68, 6-(3-Aminophenyl)-1,4-dihydroxy-1,8-naphthyridin-2(1H)-one]",< 100,< 50
"CS(=O)(=O)Nc1cccc(-c2cnc3c(c2)c(O)cc(=O)n3O)c1 [Example 69, N-[3-(5,8-Dihydroxy-7-oxo-7,8-dihydro-1,8-naphthyridin-3-yl)phenyl]methane-sulfonamide]",< 100,< 50
"CCOC(=O)c1c(O)c2cc(C(C)=O)cnc2n(O)c1=O [Example 70, ethyl 6-acetyl-1,4-dihydroxy-2-oxo-1,2-dihydro-1,8-naphthyridine-3-carboxylate]",< 100,< 50
"CC(=O)c1cnc2c(c1)c(O)c(-c1ccccc1)c(=O)n2O [Example 71, 6-acetyl-1,4-dihydroxy-3-phenyl-1,8-naphthyridin-2(1H)-one]",< 100,< 50
"O=c1c(Br)c(O)c2cc(-c3ccncc3)cnc2n1O [Example 72, 3-Bromo-1,4-dihydroxy-6-pyridin-4-yl-1,8-naphthyridin-2(1H)-one]",< 100,< 50
"CCc1cnc2c(c1)c(O)c(-c1ccccc1)c(=O)n2O [Example 73, 6-Ethyl-1,4-dihydroxy-3-phenyl-1,8-naphthyridin-2(1H)-one]",< 100,< 50
"CC(Br)Cc1cnc2c(c1)c(O)c(-c1ccccc1)c(=O)n2O (centres unmarked) [Example 74, 6-(2-Bromopropyl)-1,4-dihydroxy-3-phenyl-1,8-naphthyridin-2(1H)-one]",< 100,< 50
"O=c1c(-c2ccccc2)c(O)c2cc(-c3cccs3)cnc2n1O [Example 75, 6-(thien-2-yl)-1,4-dihydroxy-3-phenyl-1,8-napthyridin-2(1H)-one]",< 100,< 50
"CC(NCc1cccc(Cl)c1)c1cnc2c(c1)c(O)c(-c1ccccc1)c(=O)n2O (centres unmarked) [Example 76, 6-{1-[(3-Chlorobenzyl)amino]ethyl}-1,4-dihydroxy-3-phenyl-1,8-napthyridin-2(1H)-one]",< 100,< 50
"CCOC(=O)c1c(O)c2cc(C(=O)NCc3ccccc3)cnc2n(O)c1=O [Example 77, Ethyl 6-[(benzylamino)carbonyl]-1,4-dihydroxy-2-oxo-1,2-dihydro-1,8-naphthyridine-3-carboxylate]",< 100,< 50
"CCOC(=O)c1c(O)c2cc(C(=O)NCc3cccc(OC)c3)cnc2n(O)c1=O [Example 78, Ethyl 1,4-dihydroxy-6-{[3-methoxybenzyl)amino] carbonyl}-2-oxo-1,2-dihydro-1,8-naphthyridine-3-carboxylate]",< 100,< 50
